Laboratory results reported in patent publication US20030207941A1, “Method of treating vascular endothelial growth factor mediated vascular disorders” (priority 2002, published 2003).

Assays:
[1] = tested on: choroidal NV; assay: choroidal NV in a mouse model, topical administration; assay type: in vivo; conditions: previous findings
[2] = tested on: BRMEC (Bovine Retinal Microvascular Endothelial Cell); assay: VEGF-induced BRMEC capillary tube formation; assay type: cell-based
Protocol: A mixture of 8 vol of Vitrogen 100 (Cohesion; Palo Alto, Calif.), 1 vol. of 0.2N NaOH, and 1 vol. of 10× RPMI-1640 medium containing 5 μg/ml fibronectin and 5 μg/ml laminin was prepared and 400 μl was added to each well of a 24-well plate. After incubating for 3 hrs at 37° C. to solidify the gel, 10^4 BRMEC were added to each well and incubated in growth medium for 3 days. Then the medium was carefully aspirated and 200 μl of the gel solution was layered on top of the cells and incubated at 37° C. for 1 hr. Following addition of growth medium for 24 hrs, 2 ml of test medium containing serum-free (SF) medium plus VEGF or SF medium plus VEGF and AL06295A were added to each well. The gels were assessed 24 hrs later.
For quantitative analysis, six fields per treatment group were chosen from areas containing tubes; seven wells were used for each treatment. The lengths of the tubes were measured in digitized images, and the data are expressed in FIG. 2 as the total length per field of view in μm.

[3] = tested on: BRMEC (Bovine Retinal Microvascular Endothelial Cell); assay: VEGF-induced BRMEC proliferation, modified MTT assay; assay type: cell-based
Protocol: VEGF-induced BRMEC proliferation was measured using a modified MTT assay, BRMEC were plated at 3×10^3 onto a fibronectin/hyaluronic acid matrix in 96-well plates (Coming). Growth medium was added for two days, followed by serum free medium (SFM) overnight, then by test medium containing 0 or 25 ng/ml VEGF in 100 μl of SFM. After 24 hours at 37° C./5%CO2, 25 μl of MTT (3-(4,5-dimethylthiazol-2-yl)-2,5-diphenyl tetrazolium bromide) was added to each well and incubated for 4 hours. 100 μl of lysis buffer (20%SDS in 50:50 DMF:H2O+2.0% acetic acid and 0.05%HCl) was then added to each well, and the plates were incubated overnight at 37° C. and read (SPECTRAmax 190, Molecular Devices; Sunnyvale, Calif.) at 570 nm. For experiments utilizing AL06295, 25 ng/ml VEGF was combined with the compound at 0.1, 0.3, 1.0 or 3 μM.

[4] = molecular target: T1, COX-2 (Homo sapiens, UniProt P35354); conditions: known; cited from earlier work
T1 sequence (P35354 18-604): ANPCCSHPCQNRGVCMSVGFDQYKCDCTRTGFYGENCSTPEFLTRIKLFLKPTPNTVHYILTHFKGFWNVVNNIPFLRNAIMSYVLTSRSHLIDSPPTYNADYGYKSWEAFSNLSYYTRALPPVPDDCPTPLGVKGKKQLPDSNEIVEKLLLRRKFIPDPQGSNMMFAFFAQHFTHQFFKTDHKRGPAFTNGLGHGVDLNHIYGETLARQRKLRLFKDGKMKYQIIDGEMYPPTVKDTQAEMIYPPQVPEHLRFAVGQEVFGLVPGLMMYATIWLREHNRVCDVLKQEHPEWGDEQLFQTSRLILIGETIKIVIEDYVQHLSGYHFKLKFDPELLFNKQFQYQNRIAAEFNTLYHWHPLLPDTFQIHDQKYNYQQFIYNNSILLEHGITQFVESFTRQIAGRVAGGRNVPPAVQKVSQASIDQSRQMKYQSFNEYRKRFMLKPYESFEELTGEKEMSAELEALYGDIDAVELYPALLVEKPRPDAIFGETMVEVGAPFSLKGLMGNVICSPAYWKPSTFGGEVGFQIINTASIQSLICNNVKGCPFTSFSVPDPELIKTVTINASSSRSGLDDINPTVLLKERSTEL

[5] = molecular target: COX-1 (Homo sapiens, UniProt P23219); conditions: known; cited from earlier work
Chain of COX-1 (P23219 24-599): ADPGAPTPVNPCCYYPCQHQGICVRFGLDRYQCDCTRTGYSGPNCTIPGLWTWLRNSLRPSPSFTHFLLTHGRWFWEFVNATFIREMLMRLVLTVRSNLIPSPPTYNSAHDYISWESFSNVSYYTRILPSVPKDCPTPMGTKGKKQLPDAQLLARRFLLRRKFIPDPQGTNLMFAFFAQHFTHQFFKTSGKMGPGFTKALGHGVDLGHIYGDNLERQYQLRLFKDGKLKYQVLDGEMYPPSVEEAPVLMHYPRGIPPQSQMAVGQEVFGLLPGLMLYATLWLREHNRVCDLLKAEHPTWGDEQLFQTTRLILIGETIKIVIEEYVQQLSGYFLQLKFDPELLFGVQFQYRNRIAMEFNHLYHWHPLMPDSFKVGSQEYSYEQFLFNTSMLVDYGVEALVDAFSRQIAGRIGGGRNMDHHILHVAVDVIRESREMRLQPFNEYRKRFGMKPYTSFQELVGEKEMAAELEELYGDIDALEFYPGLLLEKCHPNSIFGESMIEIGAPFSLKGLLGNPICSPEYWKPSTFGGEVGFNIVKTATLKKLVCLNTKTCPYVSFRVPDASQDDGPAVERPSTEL

[6] = dose-response fashion, bovine retinal microvascular endothelial cell assay

Row | Compound | choroidal NV [1] | VEGF induced capillary tube formation in BRMECs (total tube length per field of view) ([2]; all doses, SF medium plus VEGF, assessed 24 hrs later, FIG. 2) | VEGF-induced capillary tube formation [2, 6] | VEGF induced BRMEC proliferation ([3]; 1 and 3 μM doses, 25 ng/ml VEGF, 24 hours, FIG. 1) | VEGF-induced cell proliferation [3, 6] | activity of COX-2 enzyme [4] | activity of COX-1 enzyme [5]
1 | NC(=O)Cc1cccc(C(=O)c2ccccc2)c1N [nepafenac] | inhibited |  |  |  |  |  | 
2 | 2-amino-3-benzoylbenzene acetic acid [amfenac] |  | significantly and potently inhibit | inhibit | significantly reduce | inhibit | potently inhibit | potently inhibit
